{
  "source": "patent US20030162734A1",
  "about": "“Modulation of DENN-MADD expression and interactions for treating neurological disorders” (priority 2001, published 2003)",
  "key": {"[1]": {"system": "mouse primary hippocampal neurons", "test": "TUNEL cell death assay in primary hippocampal neurons", "assay_type": "cell-based", "settings": "for Aβ-induced cell death (TUNEL positive cells): CEP11004 with 25 μM Aβ(1-42), 24 h, Control-AS or DENN-AS treated hippocampal cultures", "method": "Primary mouse and rat hippocampal neurons were prepared from newborn C57B1/6 mouse or Sprague-Dawley rat pups. Briefly, hippocampi were dissected out, minced and digested with 100 U papain and 0.2 μg/ml DNaseI. Following digestion, cells were 'triturated with fire-polished Pasteur pipets and centrifuged in media containing 20 μg/ml BSA. Cells were plated on collagen-coated or poly-lysine coated plates at a density of 3×10^6 cells/ml in Neurobasal medium with B27 supplement and antibiotics (Life Technologies, Gaithersburg, Md.). One day after plating, cells were exposed to 5 μM cytosine arabinoside for 4 d to kill dividing cells. Experiments were performed after 6-8 days in vitro (DIV).\n(§1) (PI) for cell death or GFP and phycoerythrin (PE)-conjugated annexin V for early apoptosis. The percentage of cell death was quantified as those cells expressing GFP and either annexin V or 7-AAD staining relative to total GFP expressing cells. Experiments were performed in triplicate with 10,000 events counted. TUNEL staining was performed according to manufacturer's instructions (Roche).\nTo assess cell death in neuronal cultures exposed to anti-sense oligonucleotides and Aβ, TUNEL staining was performed (FIG. 9B). […] However, due to the increased TUNEL staining with DENN-AS treated cultures, the overall cell death with Aβ was 10-15% greater in these cultures (FIG. 9C). DENN-AS treatment alone increased cell death by 20%. […] Furthermore, the level of cell death observed with Aβ was abrogated by exposing neuronal cultures to 1 βM CEP11004."}, "JNK [2]": {"system": "JNK", "test": "JNK immunoprecipitation in vitro kinase assay (GST-c-Jun substrate) from Aβ-exposed N2A clones", "assay_type": "cell-based, murine", "settings": "1 μM CEP11004 with 25 μM Aβ(1-42), 24 h; N2A clones expressing GFP or DENN", "method": "For kinase assays, cells were exposed to 25 μM Aβ(1-40) in the absence or presence of 1 μM CEP11004 for the specified duration. Cell extracts were prepared, incubated with 5 μl JNK antibody for 4 h at 4° C. and precipitated with 60 μl 50% slurry protein A/G sepharose overnight at 4° C. Immunoprecipitates were washed, then incubated with 1 μg GST-cJun (1-79) and 50 μM ATP in 40 μl for 30 min at 30° C. Reactions were terminated with 40 μl Laemmli buffer, boiled for 4 min, centrifuged and 40 μl was loaded onto 10% SDS-PAGE, transferred to nitrocellulose and probed with phospho-c-Jun (Ser73) antibody.\nN2A clones expressing GFP or DENN were exposed to 25 μM Aβ(1-42) either in the absence or presence of 1 μM CEP11004. Previously, inhibitiori of Aβ-induced cell death in neuronal PC12 cells and sympathetic neurons required less than 300 nM CEP1347 (Troy et al., 2001). After 24 h Aβ exposure, JNK was immunoprecipitated from cell extracts and incubated with GST-c-Jun substrate and ATP in an in vitro kinase assay. The reactions were immunoblotted with antibody specific to phosphorylated c-Jun. […] Thus, reduction of cell death and JNK activity by JNK inhibitors in DENN overexpressing cell cultures supports DENN involvement in c-Jun activation and cellular apoptosis."}, "DENN [3]": {"system": "DENN", "test": "Western blot of endogenous DENN in stressed neuroblastoma cultures", "assay_type": "cell-based, mouse", "settings": "for DENN expression in cultures treated with oxidative stress factors: data not shown", "method": "(§2) A) NSC19 and N2A cells were exposed to 0.1% BSA (Control) or 20 μM fibrillar Aβ(1-40) for 48 h. Cell extracts (100 μg) were immunoblotted with DENN antibody and reprobed with actin antibody. DENN reactive bands appear at ˜200 kD and ˜140 kD. DENN protein expression is higher in NSC19 relative to N2A cells. Aβ exposure dramatically reduces DENN protein expression. Similar results were obtained in three independent experiments. B) Total RNA from Control and Aβ exposed N2A cultures was extracted and RT-PCR using either DENN or actin specific primers was performed. […] Results are representative of three independent experiments. C) Primary rat hippocampal neurons were exposed to 25 μM Aβ(1-42) for 24 h, fixed in 4% PFA and stained with antibodies specific for DENN, phospho-JNK (P-JNK) and counterstained with Hoechst 33342 for nuclei.\nNSC 19 cells were harvested after the appropriate treatments by scraping into cold PBS and centrifuging at 1500 ×g for 5 min at 4° C. Cells were then lysed in buffer A (20 mM Tris-Cl, pH 7.5, 1% Triton X-100, 0.5% NP-40, 0.1 M NaCl, 20 mM β-glycerophosphate, 2 mM EDTA, 2 mM sodium pyrophosphate, 10% glycerol, 10 μg/ml leupeptin and 2 mM phenylmethylsulfonyl fluoride) for 20 min on ice followed by four 5-second sonication bursts on ice. Lysates were centrifuged at 14,000 ×g for 10 min at 4° C. Protein concentrations were measured by the Bradford (1976) assay using bovine serum albumin (BSA) standards. Approximately 50 μg of cell lysates were mixed with 2Xsample buffer and boiled for 5 min. Samples were resolved by 10% SDS-polyacrylamide gel electrophoresis (PAGE), transferred to nitrocellulose membranes, blocked in 5% skim milk and 1% BSA in 1XTBS, and incubated overnight at 4° C. with primary antibody at indicated dilutions. Blots were then washed with TBS buffer containing 0.15% Tween 20 (washing buffer), incubated with a 1:1000 dilution of anti-mouse or anti-rabbit IgG-conjugated horseradish peroxidase for 1 h at room temperature, washed again and processed by ECL detection (Amersham). […]"}, "[4]": {"system": "neuronal PC12 cells and sympathetic neurons", "settings": "cited from earlier work"}, "JNK3": {"system": "JNK3", "settings": "cited from earlier work"}, "DENN [5]": {"system": "DENN", "test": "RT-PCR of DENN RNA in Aβ-exposed N2A cultures", "assay_type": "cell-based, murine", "settings": "N2A cells", "method": "as §2\nTotal RNA was purified using the RNeasy miniprep kit (Qiagen) and resuspended in 50 μt RNase free water. For each RT-PCR, 1 μg RNA was subjected to One-Step RT-PCR using Omniscript and Sensiscript Reverse transcriptases, HotStarTaq DNA polymerase and 0.5 μM of DENN primers: sense, SEQ ID NO: 6: 5′-[…]-3′ and antisense, SEQ ID NO: 1: 5′-[…]-3′, for 30 cycles with the following conditions: 94° C., 30 s; 60° C., 1 min; 72° C., 1 min. Human and murine actin prim were supplied by Clontech.\nRNA expression was compared in N2A cells (FIG. 6B)."}, "NSC19 cells [6]": {"system": "NSC19 cells", "test": "FACS cell death assay (GFP and PI positive cells) after Aβ(1-40) exposure", "assay_type": "cell-based, mouse", "settings": "GFP-expressing NSC19 cultures, Aβ for 48 h", "method": "Lyophilized, HPLC purified β-amyloid, Aβ25-35, Aβ1-40 , Aβ1-42 and Aβ40-1 were obtained from either Sigma Chemical Co., U.S. Peptide (Fullerton, Calif.) or Bachem (Torrance, Calif.), respectively. Peptides were reconstituted in double-distilled H2O at 10 mM Aβ. To age the β-amyloid in vitro and produce aggregated, fibrillar Aβ, an aliquot of the Aβ stock solution was dissolved at the indicated concentration in culture medium and incubated at 37° C. for 3 to 5 days. Cells were incubated with the appropriate Aβ peptide concentration for the indicated times and examined for immunofluorescence or cell death assay.\nCells were analyzed by fluorescence-activated cell sorting (FACS) analysis on a FACSTAR PLUS (Becton-Dickinson) and analyzed with Cell Quest software. FACS analysis for two color analysis used GFP and either 7-amino-actinomycin (7-AAD) or propidium iodide\nas §1\nNeurotoxicity induced by Aβ(1-40) exposure was further examined using clonal cells expressing GFP-fused mutant forms of DENN. […]"}, "JNK [7]": {"system": "JNK", "settings": "at 10 μM; cited from earlier work"}, "NSC19 cells [8]": {"system": "NSC19 cells", "test": "Annexin V FACS apoptosis assay, NSC19 cells overexpressing DENN or DENN mutants, Aβ(1-40) with or without SB203580", "assay_type": "cell-based, mouse", "settings": "10 μM SB203580 with Aβ(1-40)", "description": "In contrast to primary CNS cultures, NSC19 are more readily transfectable and highly responsive to apoptosis (Smirnova et al., 1998; Citron et al, 1997). Cells were maintained in high glucose Dulbecco's Modified Eagle's Medium (DMEM) (GIBCO-BRL/Life Technologies, Rockville, Md.) supplemented with 10% fetal bovine serum (FBS) and 1% streptomycin/penicillin. Neuro2A cells (CCL-131), C0S7 (CRL-1651) and human embryonic kidney 293 (CRL-1573) cells were acquired from ATCC. Murine neuroblastoma Neuro2A (N2A) were grown in MEM supplemented with 10% FBS, while COS7 and 293 were maintained in DMEM supplemented with 10% FBS. Cells were plated (5 ×10^5 cells/ml) in 35-mm dishes and transfected with 1 μg total DNA using Effectene or SuperFect (Qiagen) as described by the manufacturer. […]\nCells were analyzed by fluorescence-activated cell sorting (FACS) analysis on a FACSTAR PLUS (Becton-Dickinson) and analyzed with Cell Quest software. […]\nas §1, with “TUNEL staining was performed according to manufacturer's instructions (Roche).” left out"}},
  "note": "“Also recorded” adds a separate entry of the source.",
  "data": [
    {"compound": "CCSCc1ccc2c(c1)c1c3c(c4c5cc(CSCC)ccc5n5c4c1n2C1C[C@](O)(C(=O)OC)[C@]5(C)O1)CNC3=O", "note": "[CEP11004]", "values": [
      {"measurement": "effect on DENN AS-induced cell death", "setting": "[1]; CEP11004, DENN-AS treated hippocampal cultures", "value": "little effect"},
      {"measurement": "Aβ-induced cell death (TUNEL positive cells)", "setting": "[1]", "value": "abrogated"},
      {"measurement": "Aβ-induced cell death (TUNEL positive cells)", "setting": "[1]; listed as CEP1004", "value": "inhibits effect of Aβ-induced cell death"},
      {"measurement": "JNK activity (c-Jun phosphorylation)", "setting": "JNK [2]", "value": "four-fold; also recorded: inhibits Aβ-induced c-Jun phosphorylation"}
    ]},
    {"compound": "OO", "note": "[hydrogen peroxide]", "values": [
      {"measurement": "DENN expression in cultures treated with oxidative stress factors", "setting": "DENN [3]", "value": "reduction in DENN expression"}
    ]},
    {"compound": "CCSCc1ccc2c(c1)c1c3c(c4c5cc(CSCC)ccc5n5c4c1n2[C@H]1C[C@](O)(C(=O)OC)[C@]5(C)O1)CNC3=O", "note": "[CEP1347]", "values": [
      {"measurement": "concentration required for inhibition of Aβ-induced cell death", "setting": "[4]", "value": "less than 300 nM"},
      {"measurement": "JNK3 activation", "setting": "JNK3", "value": "inhibit JNK3 activation"}
    ]},
    {"compound": "N[C@@H](CCC(=O)O)C(=O)O", "note": "[glutamate]", "values": [
      {"measurement": "DENN expression in cultures treated with oxidative stress factors", "setting": "DENN [3]", "value": "reduction in DENN expression"}
    ]},
    {"compound": "Aβ: β-amyloid peptide; per FIG. 6 legend 20 μM fibrillar Aβ(1-40)", "values": [
      {"measurement": "reduction of endogenous DENN protein", "setting": "DENN [3]; NSC19 and N2A cells, 20 μM fibrillar Aβ(1-40), 48 h", "value": "approximately 3 fold"},
      {"measurement": "reduction in DENN RNA expression (RT-PCR)", "setting": "DENN [5]", "value": "four-fold"}
    ]},
    {"compound": "Aβ(1-40): β-amyloid peptide 1-40, aged in vitro to aggregated, fibrillar form", "values": [
      {"measurement": "increase in cell death after Aβ exposure", "setting": "NSC19 cells [6]", "value": "five-fold"}
    ]},
    {"compound": "C[S+]([O-])c1ccc(-c2nc(-c3ccc(F)cc3)c(-c3ccncc3)[nH]2)cc1", "note": "(centres unmarked) [SB203580, 4-(4-fluorophenyl)-2-(4-methylsulfinylphenyl)-5-(4-pyridyl)-1H-imidazole]", "values": [
      {"measurement": "JNK activity inhibition", "setting": "JNK [7]", "value": "JNK activity is also inhibited"},
      {"measurement": "cell death/apoptosis in DENN-JBD transfected cells with Aβ/SB203580 co-treatment", "setting": "NSC19 cells [8]; NSC19 DENN-JBD transfectants, p<0.05", "value": "reproducible increase in cell death; also recorded: slight increase in apoptosis"},
      {"measurement": "apoptotic response (GFP and annexin V positive cells) to Aβ in cells overexpressing DENN or DENN-CT", "setting": "NSC19 cells [8]; NSC19 cells overexpressing DENN or DENN-CT, p<0.01", "value": "significantly attenuated apoptotic response; also recorded: decreased"}
    ]}
  ]
}
